Source: PMC4295349, “Synthetic Antimicrobial Peptides Exhibit Two Different Binding Mechanisms to the Lipopolysaccharides Isolated from Pseudomonas aeruginosa and Klebsiella pneumoniae” (International Journal of Medicinal Chemistry, 2014)
Like-named read-outs stand apart in the source and are kept apart here. Where a SMILES comes first, the peptide text is derived from it. [ ]: non-standard residue; d: D form. ξ: configuration not given here. Oic = O=C(O)[C@@H]1C[C@@H]2CCCC[C@@H]2N1; Oic(3aξ,7aξ) = O=C(O)[C@@H]1CC2CCCCC2N1; Tic = O=C(O)[C@@H]1Cc2ccccc2CN1; βAla = NCCC(=O)O

What was measured:
P. aeruginosa PAO1 [1] = conditions: for in vitro inhibitory activity: against P. aeruginosa
K. pneumoniae BAMC 07-18 [2] = conditions: for in vitro inhibitory activity: against K. pneumoniae
P. aeruginosa PAO1 [3] = format: cell-based, Pseudomonas aeruginosa
Source text: Table 3 In vitro minimum inhibitory concentration (MIC) and minimum bactericide concentration (MBC) activity against K. pneumonia and P. aeruginosa. | column: P. aeruginosa PAO1 / MBC (µg/mL)/(μM)

[4] = test system: LPS isolated from K. pneumoniae; assay: 1H NMR of LPS on addition of AMP; format: binding, Klebsiella pneumoniae; conditions: 1.0 mg/mL LPS + 0.1 mg AMP in 600 μL 150 mM perdeuterated sodium acetate buffer pH 5.64 in D2O, 298 K
Experimental: (§1) All ^1H experiments were conducted at 298 K on a Bruker Avance III 400 MHz NMR spectrometer equipped with a 5 mm direct observe Z-gradient broad-band probe. The spectral width was 4,000 Hz, 256 FIDs were collected per experiment. Data were processed using exponential multiplication with a line-broadening function of 5 Hz. Samples contained 1.0 mg/mL of the LPS in the presence of 0.1 mg of the AMP in 600 μL of a 150 mM perdeuterated sodium acetate buffer at a pH of 5.64 in D2O.

K. pneumoniae BAMC 07-18 [5] = format: cell-based, Klebsiella pneumoniae
Source text: Table 3 In vitro minimum inhibitory concentration (MIC) and minimum bactericide concentration (MBC) activity against K. pneumonia and P. aeruginosa. | column: K. pneumoniae BAMC 07-18 / MBC (μg/mL)/(μM)

[6] = test system: LPS isolated from P. aeruginosa; assay: 1H NMR of LPS on addition of AMP; format: binding, Pseudomonas aeruginosa; conditions: 1.0 mg/mL LPS + 0.1 mg AMP in 600 μL 150 mM perdeuterated sodium acetate buffer pH 5.64 in D2O, 298 K
Experimental: as §1

[7] = format: physicochemical
Experimental: Peptide solutions were prepared by dissolving approximately 2 mg of AMPs 70, 74, 75, 79, or 80 in 1.0 mL of phosphate buffer. […] For the LPS liposome studies 350 μL of stock LPS solution was mixed with 50 μL of stock peptide solution. CD spectroscopy is a sensitive technique, so it is commonly used to monitor conformational changes in peptides and proteins. […] All CD spectra were obtained by acquiring 8 scans using a 0.1 mm cylindrical quartz cell with a spectral range of 260 to 195 nm (at wavelengths below 195 nm the HTV exceeded 400, and therefore data collection was terminated at 195 nm) and a scanning rate of 20 nm/min. Acquisition parameters were bandwidth 1 nm, data pitch 0.2 nm, response time 2.0 s, and 5 mdeg sensitivity. Spectra were collected at room temperature (298 K). Contributions from LPS were eliminated by subtracting from the corresponding AMP-LPS solutions. All analyses of CD spectra were conducted after smoothing with a means-movement function.

[8] = P. aeruginosa PAO1, light face value
[9] = K. pneumoniae BAMC 07-18, light face value

Molecule | MIC (P. aeruginosa PAO1 [1]; [8]) [µg/mL] | MIC (P. aeruginosa PAO1 [1]; PAO1) | in vitro inhibitory activity (P. aeruginosa PAO1 [1]) [µg/mL] | MIC (K. pneumoniae BAMC 07-18 [2]; BAMC 07-18) | MIC (K. pneumoniae BAMC 07-18 [2]; [9]) [µg/mL] | in vitro inhibitory activity (K. pneumoniae BAMC 07-18 [2]) [µg/mL] | MBC (P. aeruginosa PAO1 [3]; [8]) [µg/mL] | MBC (P. aeruginosa PAO1 [3]; PAO1) | change of LPS 1H NMR resonances in the region of 1.8 to 0.7 ppm (lipid A) [4] | MBC (K. pneumoniae BAMC 07-18 [5]; BAMC 07-18) | MBC (K. pneumoniae BAMC 07-18 [5]; [9]) [µg/mL] | change of LPS 1H NMR resonances between 1.5 and 0.5 ppm (lipid A side chains) [6] | solubility in phosphate buffer at approximately 2 mg in 1.0 mL [7]
CC(C)C[C@H](NC(=O)[C@@H](N)CCCCN)C(=O)N1Cc2ccccc2C[C@H]1C(=O)N1C2CCCCC2C[C@H]1C(=O)N[C@@H](CCCCN)C(=O)NCC(=O)N1Cc2ccccc2C[C@H]1C(=O)N1C2CCCCC2C[C@H]1C(=O)N[C@@H](Cc1ccccc1)C(=O)NCC(=O)N1Cc2ccccc2C[C@H]1C(=O)N1C2CCCCC2C[C@H]1C(=O)N[C@@H](CCCCN)C(=O)NCC(=O)N1Cc2ccccc2C[C@H]1C(=O)N1C2CCCCC2C[C@H]1C(=O)N[C@@H](Cc1ccccc1)C(=O)NCC(=O)N1Cc2ccccc2C[C@H]1C(=O)N1C2CCCCC2C[C@H]1C(=O)N[C@@H](CCCCN)C(=O)NCC(=O)N1Cc2ccccc2C[C@H]1C(=O)N1C2CCCCC2C[C@H]1C(=O)N[C@@H](CCCCN)C(=O)N[C@@H](CCCCN)C(=O)N[C@@H](CCCCN)C(=O)N[C@@H](CCCCN)C(N)=O (stereo partly drawn) [AMP 79] (H-KL[Tic][Oic(3aξ,7aξ)]KG[Tic][Oic(3aξ,7aξ)]FG[Tic][Oic(3aξ,7aξ)]KG[Tic][Oic(3aξ,7aξ)]FG[Tic][Oic(3aξ,7aξ)]KG[Tic][Oic(3aξ,7aξ)]KKKK-NH2) | 50 | 13.9 µM | 50 | 13.9 µM | 50 | 50 | 50 | 13.9 µM | reduction in the signal intensity | 13.9 µM | 50 | significant reduction in the peak heights | –
CC(C)C[C@H](NC(=O)[C@@H](N)CCCCN)C(=O)N1Cc2ccccc2C[C@H]1C(=O)N1C2CCCCC2C[C@H]1C(=O)NCC(=O)N[C@@H](CCCCN)C(=O)N1Cc2ccccc2C[C@H]1C(=O)N1C2CCCCC2C[C@H]1C(=O)NCCC(=O)N[C@@H](Cc1ccccc1)C(=O)N1Cc2ccccc2C[C@H]1C(=O)N1C2CCCCC2C[C@H]1C(=O)NCC(=O)N[C@@H](CCCCN)C(=O)N1Cc2ccccc2C[C@H]1C(=O)N1C2CCCCC2C[C@H]1C(=O)NCCC(=O)N[C@@H](Cc1ccccc1)C(=O)N1Cc2ccccc2C[C@H]1C(=O)N1C2CCCCC2C[C@H]1C(=O)NCC(=O)N[C@@H](CCCCN)C(=O)N1Cc2ccccc2C[C@H]1C(=O)N1C2CCCCC2C[C@H]1C(=O)N[C@@H](CCCCN)C(=O)N[C@@H](CCCCN)C(=O)N[C@@H](CCCCN)C(=O)N[C@@H](CCCCN)C(N)=O (stereo partly drawn) [AMP 80] (H-KL[Tic][Oic(3aξ,7aξ)]GK[Tic][Oic(3aξ,7aξ)][βAla]F[Tic][Oic(3aξ,7aξ)]GK[Tic][Oic(3aξ,7aξ)][βAla]F[Tic][Oic(3aξ,7aξ)]GK[Tic][Oic(3aξ,7aξ)]KKKK-NH2) | 25 | 6.9 µM | 50 | 13.8 µM | 50 | 50 | 50 | 13.8 µM | reduction in the signal intensity | 13.8 µM | 50 | significant reduction in the peak heights | –
CC(=O)N[C@@H](CCCCN)C(=O)N[C@@H](CC(C)C)C(=O)N1Cc2ccccc2C[C@H]1C(=O)N1[C@H](C(=O)N[C@@H](CCCCN)C(=O)N2Cc3ccccc3C[C@H]2C(=O)N2[C@H](C(=O)N[C@@H](Cc3ccccc3)C(=O)N3Cc4ccccc4C[C@H]3C(=O)N3[C@H](C(=O)N[C@@H](CCCCN)C(=O)N4Cc5ccccc5C[C@H]4C(=O)N4[C@H](C(=O)N[C@@H](Cc5ccccc5)C(=O)N5Cc6ccccc6C[C@H]5C(=O)N5[C@H](C(=O)N[C@@H](CCCCN)C(=O)N6Cc7ccccc7C[C@H]6C(=O)N6[C@H](C(=O)N[C@@H](CCCCN)C(=O)N[C@@H](CCCCN)C(=O)N[C@@H](CCCCN)C(=O)N[C@@H](CCCCN)C(N)=O)C[C@@H]7CCCC[C@@H]76)C[C@@H]6CCCC[C@@H]65)C[C@@H]5CCCC[C@@H]54)C[C@@H]4CCCC[C@@H]43)C[C@@H]3CCCC[C@@H]32)C[C@@H]2CCCC[C@@H]21 [AMP 70] (Ac-KL[Tic][Oic]K[Tic][Oic]F[Tic][Oic]K[Tic][Oic]F[Tic][Oic]K[Tic][Oic]KKKK-NH2) | – | >100 µg/mL | ≥ 100 | >100 µg/mL | – | ≥ 100 | – | >100 µg/mL | reduction in the signal intensity | >100 µg/mL | – | significant reduction in the peak heights | –
H2N-KL-Tic-Oic-GK-Tic-Oic-F-Tic-Oic-GK-Tic-Oic-F-Tic-Oic-GK-Tic-Oic-KKKK-CONH2 [AMP 74, synthetic antimicrobial peptide containing six Tic-Oic dipeptide units, residue A Gly] | – | – | ≥ 100 | – | – | ≥ 100 | – | – | reduction in the signal intensity | – | – | significant reduction in the peak heights | –
CC(C)C[C@H](NC(=O)[C@@H](N)CCCCN)C(=O)N1Cc2ccccc2C[C@H]1C(=O)N1[C@H](C(=O)N[C@@H](CCCCN)C(=O)N2Cc3ccccc3C[C@H]2C(=O)N2[C@H](C(=O)NCC(=O)N[C@@H](Cc3ccccc3)C(=O)N3Cc4ccccc4C[C@H]3C(=O)N3[C@H](C(=O)N[C@@H](CCCCN)C(=O)N4Cc5ccccc5C[C@H]4C(=O)N4[C@H](C(=O)NCC(=O)N[C@@H](Cc5ccccc5)C(=O)N5Cc6ccccc6C[C@H]5C(=O)N5[C@H](C(=O)N[C@@H](CCCCN)C(=O)N6Cc7ccccc7C[C@H]6C(=O)N6[C@H](C(=O)N[C@@H](CCCCN)C(=O)N[C@@H](CCCCN)C(=O)N[C@@H](CCCCN)C(=O)N[C@@H](CCCCN)C(N)=O)C[C@@H]7CCCC[C@@H]76)C[C@@H]6CCCC[C@@H]65)C[C@@H]5CCCC[C@@H]54)C[C@@H]4CCCC[C@@H]43)C[C@@H]3CCCC[C@@H]32)C[C@@H]2CCCC[C@@H]21 [AMP 75] (H-KL[Tic][Oic]K[Tic][Oic]GF[Tic][Oic]K[Tic][Oic]GF[Tic][Oic]K[Tic][Oic]KKKK-NH2) | 50 | 14.6 µM | 50 | – | – | ≥ 100 | 50 | 14.6 µM | reduction in the signal intensity | – | – | significant reduction in the peak heights | –
CC(C)C[C@H](NC(=O)[C@@H](N)CCCCN)C(=O)N1Cc2ccccc2C[C@H]1C(=O)N1[C@H](C(=O)N[C@@H](CCCCN)C(=O)N2Cc3ccccc3C[C@H]2C(=O)N2[C@H](C(=O)N[C@@H](Cc3ccccc3)C(=O)N3Cc4ccccc4C[C@H]3C(=O)N3[C@H](C(=O)N[C@@H](CCCCN)C(=O)N4Cc5ccccc5C[C@H]4C(=O)N4[C@H](C(=O)N[C@@H](Cc5ccccc5)C(=O)N5Cc6ccccc6C[C@H]5C(=O)N5[C@H](C(=O)N[C@@H](CCCCN)C(=O)N6Cc7ccccc7C[C@H]6C(=O)N6[C@H](C(=O)N[C@@H](CCCCN)C(=O)N[C@@H](CCCNC(=N)N)C(N)=O)C[C@@H]7CCCC[C@@H]76)C[C@@H]6CCCC[C@@H]65)C[C@@H]5CCCC[C@@H]54)C[C@@H]4CCCC[C@@H]43)C[C@@H]3CCCC[C@@H]32)C[C@@H]2CCCC[C@@H]21 [AMP 22] (H-KL[Tic][Oic]K[Tic][Oic]F[Tic][Oic]K[Tic][Oic]F[Tic][Oic]K[Tic][Oic]KR-NH2) | – | >100 µg/mL | ≥ 100 | >100 µg/mL | – | ≥ 100 | – | >100 µg/mL | – | >100 µg/mL | – | – | solubility issues
